# Assay results reported in patent US7326685B2, “Diagnostic or therapeutic somatostatin or bombesin analog conjugates and uses thereof” (The Administrators of the Tulane Educational Fund, priority 2001, dated 2008).
# Read-outs that look alike come from different tables or passages of the source.
# Tests used:
# [1] = cited from earlier work
# [2] = cited from earlier work; remark: listed apart in the source
# [3] = ×5 in mice; cited from earlier work
# [4] = test system: neuroblastoma IMR-32 cells; experiment: CellTiter 96 tumor cell proliferation assay; assay type: cell-based; details: conjugate compared to non-conjugated methotrexate
# Protocol: A CellTiter 96 cell proliferation kit was used according to the described protocols (Promega Corporation, Madison, Wis.)). Culture medium (50 μl) containing various concentrations of different peptides was added respectively in each well of the 96-well kit plates followed by 50 μl of a suspension containing 5,000 cultured IMR-32 tumor cells. The plate was incubated at 37° C. for different times up to and including 7 days in a humidified, 5% CO2 atmosphere. Kit dye solution (15 μl ) was added to each well and the plate incubated the plates at 37° C. for 4 hours in a humidified, 5% CO2 atmosphere. After 4 hours, 100 μl of the solubilization/stop solution were added to each well and incubation was continued at 37° C. for 1 hour or more until complete solubilization of the formazan crystals occurred. Absorbencies of individual well solutions were then measured at 570 nm wavelength using a 96 well plate reader.
# [5] = 1×iv, mice; cited from earlier work
# [6] = target: GH release from primary cultures of rat pituitary cells (somatostatin subtype 2 rat receptor related system) (Rattus norvegicus, UniProt P30680); experiment: Inhibition of GH release from primary cultures of rat pituitary cells; assay type: cell-based; details: GH stimulated with 1 nM GRH(1-29)NH2, 3 h
# Sequence of GH release from primary cultures of rat pituitary cells (somatostatin subtype 2 rat receptor related system) (P30680 whole entry): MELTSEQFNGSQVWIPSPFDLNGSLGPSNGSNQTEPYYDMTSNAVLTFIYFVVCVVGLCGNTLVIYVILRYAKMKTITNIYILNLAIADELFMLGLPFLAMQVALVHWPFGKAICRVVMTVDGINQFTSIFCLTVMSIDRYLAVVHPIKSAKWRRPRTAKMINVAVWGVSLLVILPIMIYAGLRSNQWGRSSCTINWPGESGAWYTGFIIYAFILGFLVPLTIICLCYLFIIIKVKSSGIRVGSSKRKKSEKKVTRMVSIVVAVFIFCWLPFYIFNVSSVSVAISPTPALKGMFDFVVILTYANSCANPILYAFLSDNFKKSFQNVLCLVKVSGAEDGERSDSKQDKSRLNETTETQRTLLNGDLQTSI
# Protocol: This is a primary system for evaluating SRIF analog potency and can be considered a somatostatin subtype 2 rat receptor related system which historically also correlates well with human subtype 2 binding.
# Anterior pituitaries from adult male rats weighing 200-250 g and housed under controlled conditions (lights on from 0500-1900 h), are dispersed using aseptic techniques by a trypsin/DNase method. The dispersed cells are diluted with sterile-filtered Dulbecco's modified Eagle medium (MEM) (Gibco Laboratories, Grand Island, N.Y. (GIBCO)), which is supplemented with 2.5% fetal calf serum (GIBCO), 3% horse serum (GIBCO), 10% fresh rat serum (stored on ice for no longer than 1 h) from the pituitary donors, 1% MEM nonessential amino acids (GIBCO), gentamycin (10 ng/ml; Sigma), and nystatin (10,000 U/ml; GIBCO). The cells are counted with a hemacytometer (approximately 2,000,000 cells per pituitary) and randomly plated at a density of 200,000 cells per well (Co-star cluster 24; Rochester Scientific Co., Rochester, N.Y.). […]
# In preparation for a hormone challenge, the cells are washed 3× with medium 199 (GIBCO) to remove old medium and floating cells. […] GH in plasma and media is measured by a standard double antibody RIA using components supplied by the NIDDK and the National Hormone and Pituitary Program.
# [7] = rat, in vivo, ip
# Protocol: The solution was divided into three equal parts not exceeding 2 mL and injected intraperitoneally into each rat. Urine and feces were collected on an adsorbent pad overnight. At 24 hours, the rats were killed, dissected and each of the below organs were weighed and counted in a dose calibrator.
compound,measurement,setting,value
N.N.[Cl][Pt][Cl] [Cis-Pt],MTD,[1]; in man,100 mg/m^2
CC(=O)O[C@@]12CO[C@@H]1C[C@H](O)[C@@]1(C)C(=O)[C@H](O)C3=C(C)[C@@H](OC(=O)[C@H](O)[C@@H](NC(=O)OC(C)(C)C)c4ccccc4)C[C@@](O)([C@@H](OC(=O)c4ccccc4)[C@H]21)C3(C)C [Docetaxel],MTD,[2]; in vivo,60-100 mg/m^2
O=c1[nH]c(=O)n([C@H]2C[C@H](O)[C@@H](CO)O2)cc1F [FUDR],MTD,[1]; in human i.a.,0.6 mg/kg/day
same,MTD,[3],100 mg/kg
Nc1nc(F)nc2c1ncn2[C@@H]1O[C@H](COP(=O)(O)O)[C@@H](O)[C@@H]1O [Fludarabine-P04],MTD,[2]; ×5 days,25 mg/m^2/day
NC(=O)NO [Hydroxyurea],MTD,[1]; in man,35 mg/kg/day
"O=c1[nH]cc(F)c(=O)[nH]1 [Peptide 5-FU, 5-FU]",MTD,[2]; ×5 days,500 mg/m^2/day
CCCCCOC(=O)Nc1nc(=O)n([C@@H]2O[C@H](C)[C@@H](O)[C@H]2O)cc1F [capecitabine],MTD,[2]; orally,2.5 g/m^2
N.N.O=C([O-])C1(C(=O)[O-])CCC1.[Pt+2] [carbo-Pt],MTD,[1]; in man,360 mg/m^2
Nc1ccn([C@@H]2O[C@H](CO)[C@@H](O)[C@@H]2O)c(=O)n1 [cytarabine],MTD,[2]; in vivo,100 mg/m^2/day
COc1cc([C@@H]2c3cc4c(cc3[C@@H](O[C@@H]3O[C@@H]5CO[C@@H](C)O[C@H]5[C@H](O)[C@H]3O)[C@H]3COC(=O)[C@H]23)OCO4)cc(OC)c1O [etoposide],MTD,[1]; in man,100 mg/m^2
Nc1ccn([C@@H]2O[C@H](CO)[C@@H](O)C2(F)F)c(=O)n1 [gemcitabine],MTD,[2]; in vivo,1000 mg/m^2
CCc1c2c(nc3ccc(OC(=O)N4CCC(N5CCCCC5)CC4)cc13)-c1cc3c(c(=O)n1C2)COC(=O)[C@]3(O)CC [irinotecan],MTD,[2]; 1×/wk depending on patient response,50-150 mg/m^2
CN(Cc1cnc2nc(N)nc(N)c2n1)c1ccc(C(=O)N[C@@H](CCC(=O)O)C(=O)O)cc1 [methotrexate],"Inhibitory effects on proliferation of IMR-32 cells (potency comparison, FIG. 1)",[4],equivalent potencies
same,MTD,[2]; i.v. w/o leuco,< 500 mg/m^2
same,MTD,[2]; i.v.+leuco.,15 gm/m^2
O=C1c2c(O)ccc(O)c2C(=O)c2c(NCCNCCO)ccc(NCCNCCO)c21 [mitoxantrone],MTD,[2]; in vivo,12-14 mg/m^2
NC(=O)c1ncn2c(=O)n(CCCl)nnc12 [mitozolomide],MTD,[2]; in vivo,> 400 mg/m^2
CC[C@@]1(O)C(=O)OCc2c1cc1n(c2=O)Cc2cc3c(CN(C)C)c(O)ccc3nc2-1 [topotecan],MTD,[1]; in humans,1.5 mg/m^2/day
same,LD10,[5],75 mg/m^2
CC[C@]1(O)C[C@H]2CN(CCc3c([nH]c4ccccc34)[C@@](C(=O)OC)(c3cc4c(cc3OC)N(C=O)[C@H]3[C@@](O)(C(=O)OC)[C@H](OC(C)=O)[C@]5(CC)C=CCN6CC[C@]43[C@@H]65)C2)C1 [vincristine],MTD,[2]; in vivo,1.4 mg/m^2
CCC1=C[C@@H]2CN(C1)Cc1c([nH]c3ccccc13)[C@@](C(=O)OC)(c1cc3c(cc1OC)N(C)[C@H]1[C@@](O)(C(=O)OC)[C@H](OC(C)=O)[C@]4(CC)C=CCN5CC[C@]31[C@@H]54)C2 [vinorelbine],MTD,[2]; in vivo,30 mg/m^2/wk
D-Ser-D-Ser-D-Ser-D-Ser-D-Ser-L-Lys-D-Tyr-D-Ser-cyclo[L-Cys-L-Phe-D-Trp-L-Lys-L-Thr-L-Cys]-L-Thr-NH2 [JF-08-53],IC50,[6],0.086 nM
same,Elimination of labeled peptide in urine and feces (FIG. 2),[7],rapid and high efficiency elimination
bleomycin,MTD,[2]; in vivo,20 mg/m^2
